Results on 23 molecules are retold here after paper PMC9877316, “Identification of a novel P2X7 antagonist using structure-based virtual screening” (Frontiers in Pharmacology, 2023).

Structures are written as SMILES. A value given as a limit tells only on which side of the number the result lay.

The first experiment deals with T1, human P2X7 (Homo sapiens, UniProt Q99572).
T1 construct: expressed in transfected cells; host or cells: 1321N1 astrocytoma cells (compounds 1-17); HEK-293 cells stably expressing human P2X7 (gift of E. Adinolfi)
T1 sequence (Q99572 1-595): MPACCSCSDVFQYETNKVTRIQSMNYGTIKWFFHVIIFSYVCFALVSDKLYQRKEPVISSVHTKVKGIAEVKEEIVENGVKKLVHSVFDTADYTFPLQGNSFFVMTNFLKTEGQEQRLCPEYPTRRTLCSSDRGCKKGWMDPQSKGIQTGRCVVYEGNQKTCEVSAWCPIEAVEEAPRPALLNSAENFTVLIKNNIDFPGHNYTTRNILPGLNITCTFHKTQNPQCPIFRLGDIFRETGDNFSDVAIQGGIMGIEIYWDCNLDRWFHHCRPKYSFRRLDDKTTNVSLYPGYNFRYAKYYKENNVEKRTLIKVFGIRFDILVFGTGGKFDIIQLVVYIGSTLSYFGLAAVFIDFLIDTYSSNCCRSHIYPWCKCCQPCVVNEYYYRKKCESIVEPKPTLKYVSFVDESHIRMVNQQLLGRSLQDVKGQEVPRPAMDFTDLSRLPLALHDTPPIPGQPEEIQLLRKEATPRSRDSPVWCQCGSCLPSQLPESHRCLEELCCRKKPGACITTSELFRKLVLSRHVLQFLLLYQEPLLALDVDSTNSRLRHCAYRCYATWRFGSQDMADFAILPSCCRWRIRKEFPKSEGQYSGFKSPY
Nature of the experiment: ATP-induced YoPro-1 dye uptake assay, human P2X7. The format is cell-based. The conditions noted are these: 30 µM compound; 300 μM ATP. The protocol:
(§1) 1321N1 astrocytoma cells and HEK-293 cells were cultured (at 37°C, 5% CO2) in Dulbecco’s modified Eagle’s medium (DMEM/F-12 with Glutamax) supplemented with 10% foetal bovine serum (FBS) and 200 unit/ml of penicillin and streptomycin antibiotics (Fisher Scientific). For stable cell line generation, cells were transfected using FuGene HD Transfection Reagent (Promega) according to the manufacturer’s protocol with plasmids encoding either human P2X4 with a C-terminal (His)10 tag ([Young et al., 2008]), human P2X7 with a C-terminal EYMPME tag (kindly provided by R.A. North) or rat P2X7 C-terminally tagged with a GFP-(His)8 tag, generated by PCR amplification of the coding sequence for rat P2X7 from a pcDNA-based expression vector ([Young et al., 2007]), adding XhoI and EcoRI sites at the 5′- and 3′- ends respectively, followed by restriction digestion and ligation into a zebrafish P2X4-GFP expression vector based on pEGFP-C1 (kindly provided by Eric Gouaux; [Kawate and Gouaux, 2006]) to replace the zebrafish P2X4 coding region with rP2X7. Transfected clones were grown in DMEM/F-12 with Glutamax medium supplemented with G-418 (Geneticin®, Fisher Scientific), 600 μg/ml and 150 μg/ml during selection and maintenance respectively. […] HEK-293 cells stably expressing human P2X7 ([Adinolfi et al., 2010]) were a kind gift from Elena Adinolfi.
(§2) Cells were plated as for the calcium influx assay (Section 2.4). Culture medium was replaced with low divalent cation containing extracellular solution (ECS-LD; 147 mM NaCl, 10 mM HEPES, 13 mM Glucose, .2 mM CaCl2, 2 mM KCl. pH = 7.4 in MilliQ water) and 5 μM Yopro-1. […] The baseline was measured with a BMG Clariostar instrument for 5–10 cycles, followed by addition of ATP (or BzATP) and recording for at least 30 further cycles (approx. 1 min per data point). The collected responses were normalized to the first data-point recorded after ATP addition. The initial gradient of the dye uptake curve was used to calculate the response to ATP.
The antagonist activity of the 17 compounds (applied at 10 µM) was assayed initially on 1321N1 astrocytoma cells stably expressing human P2X4 receptors by measuring the ATP-induced (applied at 1.2 µM) increase in Fluo-4 fluorescence due to calcium influx via P2X4, using 2 µM BX430 as a positive control (Figure 1A). […] The ATP-induced rate of uptake of YoPro-1 dye was measured upon application of at 300 µM ATP, using .1 µM A740003 as a positive control (Figure 1B).
A small library of 16 commercially available compounds was selected according to the presence of the same scaffold as GP-25, (70% similarity, Tanimoto index) and/or presence of at least one functional group we hypothesized could contribute to GP-25 activity (e.g. carboxylic acid, halogen substituent to the aromatic ring, ester, etc.) (Compounds 18–33; Table 1). […] Although the number of compounds tested was limited by their availability via a commercial source, the numerous ‘hits’ allowed for a basic structure-relationship (SAR) analysis.
In the case of `CCOC(=O)C1=C(C)NC2=C(C(=O)c3ccccc32)C1c1cc(Br)ccc1OCC` (stereo not drawn) [Compound 19], the “reduction in ATP-induced dye uptake at human P2X7” value is on record as “completely abolished the activity”. For the molecule `COC(=O)C1=C(C)NC2=C(C(=O)c3ccccc32)C1c1ccc(-c2ccccc2[N+](=O)[O-])o1` (stereo not drawn) [Compound 23], the “reduction in ATP-induced dye uptake at human P2X7” value is on record as “statistically significant reduction”.

The experiment is the same for the next values; noted with them: P2X7, 30 µM compound; 300 µM ATP; YoPro-1; read-out: inhibition of response at human P2X7.
For orientation: inhibition means the drop in the measured response relative to a control, in per cent. Take `CC1(C)CC(=O)C2=C(C1)N(CC(=O)O)C1=C(C(=O)CC(C)(C)C1)C2c1ccc(OCc2ccccc2)cc1` [Compound 13]: the inhibition at 30 µM was at most 25%. The same measure, in the same setting: the result for `COc1ccc(C2C3=C(CCCC3=O)N(CC(=O)O)C3=C2C(=O)CCC3)cc1` [Compound 14] reads at most 25%; that for `CC1(C)CC(=O)C2=C(C1)NC1=C(C(=O)CC(C)(C)C1)C2c1ccccc1OCC(=O)O` [Compound 18], at most 25%; that for `CN1C2=C(C(=O)CCC2)C(c2cc(Cl)ccc2OCC(=O)O)C2=C1CCCC2=O` [Compound 25], at most 25%. Still for that read-out and setting: the result for `O=C(O)COc1ccc(Br)cc1C1C2=C(CCCC2=O)NC2=C1C(=O)CCC2` [Compound 26] reads at most 25%. The same measure, in the same setting: the result for `O=C(O)COc1ccc(Cl)cc1C1C2=C(CCCC2=O)NC2=C1C(=O)CCC2` [Compound 27] reads at most 25%.

Staying with this experiment, now noted: P2X7, approx. % inhibition at 30 μM compound; 300 µM ATP; YoPro-1 uptake; 1321N1 (1-17) or HEK (18-33) cells; read-out: % Inhibition at hP2X7.
Regarding `O=C(Nc1cc(S(=O)(=O)O)cc2cc(S(=O)(=O)O)cc(O)c12)c1ccccc1` [Compound 1], the inhibition at 30 µM turned out to be 41%.

Regarding `O=C(O)c1ccccc1NS(=O)(=O)c1ccc2c(c1)C(=O)c1ccccc1C2=O` [Compound 2], the inhibition at 30 µM came out at 38%. Take `Nc1nc(SCC(=O)NCCO)nc2sc3c(c12)CCCC3` [Compound 3]: the inhibition at 30 µM is below 0%. For the molecule `Cc1ccc(C(=O)C2=C(O)C(=O)N(CC3CCCO3)C2c2cccc(Oc3ccccc3)c2)o1` (stereo not drawn) [Compound 4], the inhibition at 30 µM is below 10%. The same measure, in the same setting: the result for `Cc1ccc(N2C(S)=C(C#N)C(=O)NC2c2cccs2)cc1` (stereo not drawn) [Compound 5] reads below 0%.

`CC(=O)c1ccc(N/N=C(\C#N)C(=O)NCc2ccccc2)cc1` [Compound 6]: the inhibition at 30 µM is below 10%.

As to `O=C1NC(=O)C(CCc2ccncc2)(c2ccccc2)C(=O)N1` [Compound 8], the inhibition at 30 µM was below 0%. Still for that read-out and setting: the result for `C=CCN1C(=O)N/C(=C/c2ccc(-c3ccc(C(=O)O)cc3C)o2)C1=O` [Compound 11] reads 25%; that for `NC(=O)CN1C(=O)C(O)(CC(=O)c2cccc(N)c2)c2ccccc21` (stereo not drawn) [Compound 12], 12%. Consider `CC1(C)CC(=O)C2=C(C1)N(CC(=O)O)C1=C(C(=O)CC(C)(C)C1)C2c1ccc(OCc2ccccc2)cc1` [Compound 13], for which the inhibition at 30 µM came to 29%. For the molecule `COc1ccc(C2C3=C(CCCC3=O)N(CC(=O)O)C3=C2C(=O)CCC3)cc1` [Compound 14], the inhibition at 30 µM is below 0%.

Consider `O=C(O)CCCC(=O)Nc1ccc(CN2CCOCC2)cc1` [Compound 15], for which the inhibition at 30 µM turned out to be 11%. The same measure, in the same setting: then `O=C(O)CSc1nc(SCC(=O)O)c2c3c(sc2n1)CCCC3` [Compound 16], with below 10%; and `O=C(NNC(=S)CC(=O)c1cccs1)c1ccc(O)cc1` [Compound 17], with below 10%; and `CC1(C)CC(=O)C2=C(C1)NC1=C(C(=O)CC(C)(C)C1)C2c1ccccc1OCC(=O)O` [Compound 18], with below 0%. As for `CCOC(=O)C1=C(C)NC2=C(C(=O)c3ccccc32)C1c1cc(Br)ccc1OCC` (stereo not drawn) [Compound 19], the inhibition at 30 µM is below 0%. Take `COC(=O)C1=C(C)NC2=C(C(=O)c3ccccc32)C1c1ccc(-c2ccccc2[N+](=O)[O-])o1` (stereo not drawn) [Compound 23]: the inhibition at 30 µM is 30%. Same read-out and setting: the result for `CCOC(=O)C1=C(C)NC2=C(C(=O)c3ccccc32)C1c1cc(Br)c(OCc2ccc(F)cc2)c(OC)c1` (stereo not drawn) [Compound 24] reads 12%. The same measure, in the same setting: then `CN1C2=C(C(=O)CCC2)C(c2cc(Cl)ccc2OCC(=O)O)C2=C1CCCC2=O` [Compound 25], with 20%.

For `O=C(O)COc1ccc(Br)cc1C1C2=C(CCCC2=O)NC2=C1C(=O)CCC2` [Compound 26], the inhibition at 30 µM amounted to 22%. Same read-out and setting: the result for `O=C(O)COc1ccc(Cl)cc1C1C2=C(CCCC2=O)NC2=C1C(=O)CCC2` [Compound 27] reads 16%.

The same experiment, now with this note: agonist concentration-response, YoPro-1 uptake.
A word on the EC50: it is the concentration needed to bring the measured effect to its halfway point. Low values mean greater potency, high ones weaker potency. The molecule `Nc1ncnc2c1ncn2[C@@H]1O[C@H](COP(=O)(O)OP(=O)(O)OP(=O)(O)O)[C@@H](O)[C@H]1O` [ATP, reference compound] showed a concentration for a half-maximal effect (EC50) of 184 µM.

The same experiment, now with this note: approx. % inhibition at 30 μM compound; 300 µM ATP; YoPro-1 uptake; 1321N1 (1-17) or HEK (18-33) cells.
`CCOC(=O)CN1C(=O)S/C(=C/c2ccc(-c3ccc(C(=O)O)c(Cl)c3)o2)C1=O` [Compound 10]: the “% Inhibition at hP2X7” value is recorded as “— (for compound displaying increased responses vs. control)”.

The target in the next experiment is T2, rat P2X7 (Rattus norvegicus, UniProt Q64663).
T2 construct: expressed in transfected cells; host or cells: HEK-293 cells stably expressing rat P2X7-GFP (patch clamp)
T2 sequence (Q64663 1-595): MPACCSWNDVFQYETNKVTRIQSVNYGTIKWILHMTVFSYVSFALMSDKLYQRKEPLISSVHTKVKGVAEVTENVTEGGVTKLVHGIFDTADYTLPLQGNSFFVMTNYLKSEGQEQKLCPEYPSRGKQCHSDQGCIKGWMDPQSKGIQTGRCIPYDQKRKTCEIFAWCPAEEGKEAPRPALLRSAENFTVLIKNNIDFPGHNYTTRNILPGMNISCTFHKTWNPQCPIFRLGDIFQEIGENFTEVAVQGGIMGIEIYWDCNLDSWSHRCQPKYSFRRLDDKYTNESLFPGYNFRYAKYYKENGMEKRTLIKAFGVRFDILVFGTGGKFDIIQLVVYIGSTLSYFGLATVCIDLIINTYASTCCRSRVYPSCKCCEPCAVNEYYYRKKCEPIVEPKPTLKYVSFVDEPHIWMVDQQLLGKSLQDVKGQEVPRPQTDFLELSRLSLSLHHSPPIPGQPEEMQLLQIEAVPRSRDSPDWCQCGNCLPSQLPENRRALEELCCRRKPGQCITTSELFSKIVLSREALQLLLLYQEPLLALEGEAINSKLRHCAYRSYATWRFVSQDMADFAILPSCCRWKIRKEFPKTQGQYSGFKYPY
Kind of experiment: ATP/BzATP-induced YoPro-1 dye uptake assay, rat P2X7. The format is cell-based. The conditions noted are these: agonist concentration-response, YoPro-1 uptake. The protocol: as §1, §2
In order to confirm GP-25 as a competitive (orthosteric) antagonist, BzATP concentration-response curves (ranging between 300 μM and .03 µM) were constructed for rat P2X7-GFP in the YoPro-1 uptake assay in the presence of increasing concentrations of GP-25 (Figure 3A).
In the case of `Nc1ncnc2c1ncn2[C@@H]1O[C@H](COP(=O)(O)OP(=O)(O)OP(=O)(O)O)[C@@H](O)[C@H]1O` [ATP, reference compound], the EC50 stood at 138 µM.

The same experiment, now with this note: approx. % inhibition at 30 μM compound; 300 µM ATP; YoPro-1 uptake; rat P2X7-GFP; read-out: % Inhibition at rP2X7.
As for `CC1(C)CC(=O)C2=C(C1)NC1=C(C(=O)CC(C)(C)C1)C2c1ccccc1OCC(=O)O` [Compound 18], the inhibition at 30 µM is below 0%.

Consider `CCOC(=O)C1=C(C)NC2=C(C(=O)c3ccccc32)C1c1cc(Br)ccc1OCC` (stereo not drawn) [Compound 19], for which the inhibition at 30 µM amounted to 13%. For `COC(=O)C1=C(C)NC2=C(C(=O)c3ccccc32)C1c1ccc(-c2ccccc2[N+](=O)[O-])o1` (stereo not drawn) [Compound 23], the inhibition at 30 µM is below 0%. Same read-out and setting: the result for `CCOC(=O)C1=C(C)NC2=C(C(=O)c3ccccc32)C1c1cc(Br)c(OCc2ccc(F)cc2)c(OC)c1` (stereo not drawn) [Compound 24] reads 16%; that for `CN1C2=C(C(=O)CCC2)C(c2cc(Cl)ccc2OCC(=O)O)C2=C1CCCC2=O` [Compound 25], below 0%. On the same count and under the same terms, then `O=C(O)COc1ccc(Br)cc1C1C2=C(CCCC2=O)NC2=C1C(=O)CCC2` [Compound 26], with below 0%; and `O=C(O)COc1ccc(Cl)cc1C1C2=C(CCCC2=O)NC2=C1C(=O)CCC2` [Compound 27], with below 0%.
